Experimental findings from PubChem BioAssay (NCI) are described below.

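Five compound concentrations were applied to cells in 96-well plates for 48 hours; endpoints were derived by simple linear interpolation of the resulting dose-response curve. TGI: concentration producing complete growth inhibition.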

Among the test systems are BT-549 breast; EKVX NSCLC; HT29 colon; M14 melanoma; OVCAR-3 ovarian; SF-539 CNS; SK-MEL-28 melanoma; SK-OV-3 ovarian; SN12C renal; T-47D breast.
Holding throughout (assay): NCI tumour cell line growth inhibition, 48 h

As for `COC(=O)C[C@H](COCc1ccccc1)NC(=O)C[C@H](COCc1ccccc1)NC(=O)C[C@H](COCc1ccccc1)NC(=O)OC(C)(C)C`, the TGI in the test with BT-549 breast, in the test with EKVX NSCLC, with HT29 colon, in the test on M14 melanoma, with OVCAR-3 ovarian and with SF-539 CNS was above 100 µM each time. For the same molecule, the TGI with SK-MEL-28 melanoma, in the test with SK-OV-3 ovarian, in the test on SN12C renal and with T-47D breast was above 100 µM throughout.
As to `O=c1c2cc(-c3ccccc3)cnc2sn1-c1ccc([N+](=O)[O-])cc1`, the TGI in the test on BT-549 breast is above 100 µM; in the test with EKVX NSCLC, above 100 µM; with HT29 colon it was above 100 µM; in the test with M14 melanoma it was above 100 µM; with OVCAR-3 ovarian, 60.2 µM; with SF-539 CNS it was above 100 µM. Further, the TGI in the test on SK-MEL-28 melanoma, in the test with SK-OV-3 ovarian, in the test with SN12C renal and in the test on T-47D breast was above 100 µM each time.
Turning to `Cc1cc2nc3n(c2cc1C)C(c1c(F)cccc1F)SC3` (stereo not given), the TGI was 43.7 µM in the test with BT-549 breast; 75.4 µM with EKVX NSCLC; 38.9 µM in the test with HT29 colon; 40.8 µM in the test on M14 melanoma; 91.2 µM in the test with OVCAR-3 ovarian; 38.2 µM in the test with SF-539 CNS. The TGI with SK-MEL-28 melanoma was 40.2 µM; with SK-OV-3 ovarian, above 100 µM; in the test on SN12C renal, 41.9 µM; with T-47D breast it was above 100 µM.
As to `Cc1ccccc1NC(=S)N/N=C(/c1ccccc1)c1ccccn1`, the TGI in the test with BT-549 breast is 18.5 µM; in the test with EKVX NSCLC it was 3.43 µM; with HT29 colon it was 15.8 µM; in the test with M14 melanoma it was 1.91 µM; with OVCAR-3 ovarian it was 10.5 µM; in the test on SF-539 CNS, 7.76 µM. In addition, the TGI was 16.8 µM with SK-MEL-28 melanoma, 14.2 µM in the test with SK-OV-3 ovarian, 10 µM in the test with SN12C renal and 12.4 µM with T-47D breast.
With `CC(=O)Oc1ccc(OC(Oc2ccccc2)c2ccccc2)cc1` (stereo not given), the TGI with BT-549 breast was 68 µM; with EKVX NSCLC, above 100 µM; with HT29 colon, 87 µM; with M14 melanoma, 32.1 µM; in the test on OVCAR-3 ovarian, 49.5 µM; with SF-539 CNS, 49.8 µM. Also, the TGI with SK-MEL-28 melanoma was 69 µM; in the test with SK-OV-3 ovarian, above 100 µM; with SN12C renal it was 29.2 µM; in the test with T-47D breast, above 100 µM.
`CCOC(OCC)C(CCc1ccccc1)c1c(N)nc(N)[nH]c1=O` (stereo not given): the TGI in the test with BT-549 breast was above 100 µM; in the test on EKVX NSCLC, 22.3 µM; in the test on HT29 colon, above 100 µM; in the test on M14 melanoma, above 100 µM; with OVCAR-3 ovarian, above 100 µM; in the test on SF-539 CNS, above 100 µM. Moreover, the TGI with SK-MEL-28 melanoma was above 100 µM; in the test on SK-OV-3 ovarian, 90.7 µM; in the test on SN12C renal, above 100 µM; in the test with T-47D breast, above 100 µM.
On to `Cc1cccc2c(N)c3cccc(C(=O)NCC[N+](C)(C)Cc4sc(N5CCOCC5)nc4[N+](=O)[O-])c3nc12`, for which the TGI is 40.8 µM in the test on BT-549 breast; above 100 µM in the test with EKVX NSCLC; 2.74 µM with HT29 colon; 15 µM in the test on M14 melanoma; 14.6 µM in the test on OVCAR-3 ovarian; 10 µM in the test with SF-539 CNS. Also, the TGI was above 100 µM in the test with SK-MEL-28 melanoma, 6.19 µM in the test on SK-OV-3 ovarian, above 100 µM in the test with SN12C renal and above 100 µM in the test on T-47D breast.
As to `COCC(=O)[C@]1(O)Cc2c(O)c3c(c(O)c2[C@@H](OC2CC(N)C(O)C(C)O2)C1)C(=O)c1c(OC)cccc1C3=O` (stereo not given in full), the TGI in the test on BT-549 breast was found to be 1.99 µM; in the test on EKVX NSCLC it was 2.9 µM; with HT29 colon, 0.735 µM; with M14 melanoma, 0.275 µM; in the test with OVCAR-3 ovarian, 0.536 µM; with SF-539 CNS it was 0.312 µM. In addition, the TGI is 0.398 µM in the test with SK-MEL-28 melanoma, 4.03 µM with SK-OV-3 ovarian, 3.42 µM with SN12C renal and 0.737 µM in the test with T-47D breast.
As for `CC(=O)O[C@H]1CC[C@@]2(C)C(=CC[C@@H]3[C@@H]2CC[C@]2(C)c4nc(N)c(C#N)cc4C[C@@H]32)C1`, the TGI in the test on BT-549 breast is above 63.7 µM; with EKVX NSCLC, above 86.9 µM; with HT29 colon it was above 62.2 µM; in the test with M14 melanoma, above 100 µM; with OVCAR-3 ovarian it was 23.8 µM; in the test on SF-539 CNS, 64 µM. Moreover, the TGI is above 100 µM in the test on SK-MEL-28 melanoma, above 83.8 µM in the test with SK-OV-3 ovarian, above 100 µM with SN12C renal and above 96.6 µM in the test on T-47D breast.
Regarding `O=C(NN=C1CCCCC1)Nc1ccccc1Cl`, the TGI with BT-549 breast was above 100 µM; in the test with EKVX NSCLC, above 100 µM; in the test with HT29 colon, above 100 µM; with M14 melanoma it was above 100 µM; with OVCAR-3 ovarian, 38.8 µM; in the test on SF-539 CNS, above 100 µM. The TGI in the test on SK-MEL-28 melanoma, in the test with SK-OV-3 ovarian, in the test on SN12C renal and in the test on T-47D breast was above 100 µM each time.
As for `O=[N+]([O-])c1cccc2nc3ccccc3c(NCCC[N+]3([O-])CCCCC3)c12`, the TGI with BT-549 breast came out at 1.53 µM; in the test with EKVX NSCLC, 2.94 µM; in the test on HT29 colon, 6.37 µM; in the test with M14 melanoma, 2.95 µM; in the test with OVCAR-3 ovarian it was 0.852 µM; in the test on SF-539 CNS, 2.16 µM. Besides, the TGI in the test with SK-MEL-28 melanoma came out at 5.11 µM; in the test on SK-OV-3 ovarian it was 4.58 µM; in the test on SN12C renal, 1.55 µM; with T-47D breast it was 4.9 µM.
In the case of `C1OCN2c3nonc3N3COCN4c5nonc5N1C2C43` (stereo not given), the TGI in the test on BT-549 breast, with EKVX NSCLC, in the test with HT29 colon, with M14 melanoma, with OVCAR-3 ovarian and with SF-539 CNS was above 100 µM throughout. Besides, the TGI in the test with SK-MEL-28 melanoma, in the test with SK-OV-3 ovarian, in the test on SN12C renal and with T-47D breast was above 100 µM in each case.
Regarding `O=C1c2ccccc2C2(c3ccc(Cl)cc3)NCc3ccccc3CN12` (stereo not given), the TGI with BT-549 breast was above 100 µM; with EKVX NSCLC, 49.1 µM; with HT29 colon, 28.5 µM; in the test with M14 melanoma, 34 µM; with OVCAR-3 ovarian it was 26.6 µM; in the test with SF-539 CNS, 29.8 µM. In addition, the TGI was above 100 µM in the test on SK-MEL-28 melanoma, 80.9 µM in the test on SK-OV-3 ovarian, above 100 µM with SN12C renal and 49.9 µM in the test with T-47D breast.
